This is an account of results in paper PMC6458391, “Deep eutectic solvent for an expeditious sono-synthesis of novel series of bis-quinazolin-4-one derivatives as potential anti-cancer agents” (Royal Society Open Science, 2019).

Read-outs that look alike come from different tables or passages of the source.

Series [1] relates to A549 (lung cancer) cell line. In words: MTT cytotoxicity assay, A549. As to conditions: for inhibition: 48 h, triplicate, mean ± s.e.m.; for IC50: read-out: IC50 A549, MTT, 48 h drug treatment, A549. For orientation: Tetrazolium assays rely on reduction of a dye to a coloured formazan, in cell work by metabolically active cells.
Method: Two concentrations (10 and 30 µM in triplicate) of the derivatives were utilized and after 48 h of drug treatment the results were analyzed. The obtained results were tabulated as mean ± s.e.m. With standard errors below 10%, the reproducibility between replicate wells is within the acceptable values.
The cytotoxic activities of all newly prepared derivatives were assessed in monolayer cultures by utilizing MTT assay. […] The tested derivatives were prepared prior to the experiment by dissolving in 0.1% DMSO and diluted with medium. The cells were then exposed to two concentrations of drugs (10 and 30 µM) in the volume of 100 µM/well. Cells in the control wells received the same volume of medium comprising 0.1% DMSO. After 24 h, the medium was removed and cell cultures were incubated with 100 ml MTT reagent for 5 h at 37°C. The known number of cells was incubated in a 5% CO2 incubator at 37°C in the presence of different concentrations of test compounds. After 48 h of drug incubation, the MTT solution was added in each well and the absorbance was measured by using a microplate reader at 490 nm. The experiment was performed in triplicate. Cell survival was calculated as the percentage of MTT inhibition as % growth inhibition = 100 − (mean OD of individual test group/mean OD of each control group) × 100.
The mark [2] stands for this setting: read-out: Cells viability (%) A549, 10 μM, 10 μM.
The mark [3] stands for this setting: read-out: Cells viability (%) A549, 30 μM, 30 μM.

Usually melting point stands for the temperature of the solid-liquid transition. For orientation: IC50 means the midpoint of a concentration-inhibition curve. On to `Cc1nc2ccc([N+](=O)[O-])cc2c(=O)n1-c1ccc(S(=O)(=O)c2ccc(-n3c(C)nc4ccc([N+](=O)[O-])cc4c3=O)cc2)cc1` [Compound 7e, 3,3′-(Sulfonylbis(4,1-phenylene))bis(2-methyl-6-nitroquinazolin-4(3H)-one)], for which the melting point lay within 316 to 319 °C. Besides, in series [1] (from IC50 values), the “potency against A549 relative to sorafenib” value is on record as “approximately twice as potent as sorafenib”. In addition, the inhibition in series [1] (setting [2]) was 95.99 ± 0.14%. Also, the inhibition in series [1] (setting [3]) is 96.76 ± 0.87%. For the same compound, the IC50 in series [1] was 2.75 µM.
In turn, `Cc1nc2ccccc2c(=O)n1-c1cccc(-n2c(C)nc3ccccc3c2=O)c1` [Compound 11, 3,3′-(1,3-Phenylene)bis(2-methylquinazolin-4(3H)-one)] returned a melting point of 236 to 238 °C. The inhibition in series [1] (setting [2]) was 79.8 ± 1.05%. Further, the inhibition in series [1] (setting [3]) stood at 83.2 ± 1.02%. In addition, the IC50 in series [1] was 5.94 µM.
